Assay results taken from ChEMBL document CHEMBL6153026, “Small-Molecule Modulators Targeting Coactivator-Associated Arginine Methyltransferase 1 (CARM1) as Therapeutic Agents for Cancer Treatment: Current Medicinal Chemistry Insights and Emerging Opportunities” (J Med Chem, 2025).

Legend:
Homo sapiens = species: Homo sapiens; assay: Selectivity ratio of IC50 for human PRMT6 to IC50 for human PRMT4
DU-145 = assay: Antiproliferative activity against human DU-145 cells assessed as reduction in cell viability incubated for 72 hrs by MTT assay; format: functional, cell-based; settings: DU-145, 72 h
[1] = biological target: T1, Histone-arginine methyltransferase CARM1 (Homo sapiens, UniProt Q86X55); assay: Inhibition of GST-tagged CARM1 (unknown origin) extracted form Escherichia coli BL21 (DE3) by MTase-Glo reagent based luminometer analysis
T1 sequence (Q86X55 whole entry): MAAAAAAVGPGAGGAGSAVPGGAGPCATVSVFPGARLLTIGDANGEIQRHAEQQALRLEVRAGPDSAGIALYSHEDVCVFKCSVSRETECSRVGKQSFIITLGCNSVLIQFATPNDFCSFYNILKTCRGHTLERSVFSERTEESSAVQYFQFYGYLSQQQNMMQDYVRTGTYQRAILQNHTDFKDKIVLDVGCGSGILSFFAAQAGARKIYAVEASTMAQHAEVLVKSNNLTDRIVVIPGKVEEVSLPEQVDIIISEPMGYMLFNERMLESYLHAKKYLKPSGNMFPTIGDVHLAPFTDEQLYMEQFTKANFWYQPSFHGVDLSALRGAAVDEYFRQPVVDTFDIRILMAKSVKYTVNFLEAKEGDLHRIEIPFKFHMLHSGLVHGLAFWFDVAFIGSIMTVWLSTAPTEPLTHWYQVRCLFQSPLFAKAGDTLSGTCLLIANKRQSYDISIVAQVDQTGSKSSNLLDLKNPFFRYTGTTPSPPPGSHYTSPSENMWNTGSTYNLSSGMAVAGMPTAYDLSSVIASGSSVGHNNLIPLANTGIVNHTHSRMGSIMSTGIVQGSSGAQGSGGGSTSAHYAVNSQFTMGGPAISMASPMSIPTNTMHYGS

MCF7 = assay: Cytotoxicity against human MCF7 cells assessed as reduction in cell viability by MTS assay; format: functional, cell-based
MV4-11 = assay: Antiproliferative activity against human MV4-11 cells assessed as reduction in cell viability; format: functional, cell-based
[2] = biological target: T1, Histone-arginine methyltransferase CARM1; assay: Inhibition of CARM1 (unknown origin)
[3] = Lipophilicity, logP of compound; format: physicochemical; settings: octanol/water
[4] = biological target: Protein arginine N-methyltransferase 5 (Homo sapiens, UniProt O14744); assay: Inhibition of PRMT5 (unknown origin)
Protein arginine N-methyltransferase 5, sequence (O14744 whole entry, the tested form may be a part): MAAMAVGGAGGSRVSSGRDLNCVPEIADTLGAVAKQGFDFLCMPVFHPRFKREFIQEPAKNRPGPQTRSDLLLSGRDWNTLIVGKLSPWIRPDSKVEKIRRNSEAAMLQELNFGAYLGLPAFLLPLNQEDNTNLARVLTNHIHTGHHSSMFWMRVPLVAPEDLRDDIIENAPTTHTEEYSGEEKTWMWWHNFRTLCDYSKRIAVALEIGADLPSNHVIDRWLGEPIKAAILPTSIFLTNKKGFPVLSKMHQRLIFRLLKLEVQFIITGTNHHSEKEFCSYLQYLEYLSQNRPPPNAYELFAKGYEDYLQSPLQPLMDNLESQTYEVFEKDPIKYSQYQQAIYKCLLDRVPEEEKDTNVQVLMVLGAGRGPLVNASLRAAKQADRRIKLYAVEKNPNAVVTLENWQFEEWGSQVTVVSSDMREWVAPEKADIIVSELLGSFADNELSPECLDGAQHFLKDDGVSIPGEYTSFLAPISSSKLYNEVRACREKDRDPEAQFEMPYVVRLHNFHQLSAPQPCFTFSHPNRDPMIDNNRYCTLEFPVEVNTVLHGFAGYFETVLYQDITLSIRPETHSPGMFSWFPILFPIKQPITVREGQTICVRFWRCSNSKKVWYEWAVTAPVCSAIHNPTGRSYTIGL

[5] = biological target: T1, Histone-arginine methyltransferase CARM1; assay: Inhibition of C-terminal His-tagged human CARM1 catalytic domain (135 to 479 residues) extracted from Escherichia coli BL21 CodonPlus (DE3)-RIL cells using (H3(3-31)) as substrate by enzymatic assay
[6] = biological target: Protein arginine N-methyltransferase 6 (Homo sapiens, UniProt Q96LA8); assay: Inhibition of PRMT6 (unknown origin) by scintillation proximity assay
Protein arginine N-methyltransferase 6, sequence (Q96LA8 whole entry, the tested form may be a part): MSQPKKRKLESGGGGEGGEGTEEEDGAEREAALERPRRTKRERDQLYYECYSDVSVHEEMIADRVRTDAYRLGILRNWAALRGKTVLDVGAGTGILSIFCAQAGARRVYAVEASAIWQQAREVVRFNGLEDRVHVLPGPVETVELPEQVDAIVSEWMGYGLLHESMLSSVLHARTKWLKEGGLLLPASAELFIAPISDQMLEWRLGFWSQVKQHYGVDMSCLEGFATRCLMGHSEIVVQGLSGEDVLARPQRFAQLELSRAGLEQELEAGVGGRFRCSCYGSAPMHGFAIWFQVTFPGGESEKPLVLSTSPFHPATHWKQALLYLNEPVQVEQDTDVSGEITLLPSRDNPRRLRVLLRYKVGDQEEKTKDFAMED

[7] = biological target: T1, Histone-arginine methyltransferase CARM1; assay: Inhibition of human N-terminal 6xHis-tagged CARM1 catalytic domain (140 to 480 residues) using histone H3 as substrate and SAM as cofactor by radiometric HotSpot assay
[8] = biological target: Protein arginine N-methyltransferase 3 (Homo sapiens, UniProt O60678); assay: Inhibition of PRMT3 (unknown origin)
Protein arginine N-methyltransferase 3, sequence (O60678 whole entry): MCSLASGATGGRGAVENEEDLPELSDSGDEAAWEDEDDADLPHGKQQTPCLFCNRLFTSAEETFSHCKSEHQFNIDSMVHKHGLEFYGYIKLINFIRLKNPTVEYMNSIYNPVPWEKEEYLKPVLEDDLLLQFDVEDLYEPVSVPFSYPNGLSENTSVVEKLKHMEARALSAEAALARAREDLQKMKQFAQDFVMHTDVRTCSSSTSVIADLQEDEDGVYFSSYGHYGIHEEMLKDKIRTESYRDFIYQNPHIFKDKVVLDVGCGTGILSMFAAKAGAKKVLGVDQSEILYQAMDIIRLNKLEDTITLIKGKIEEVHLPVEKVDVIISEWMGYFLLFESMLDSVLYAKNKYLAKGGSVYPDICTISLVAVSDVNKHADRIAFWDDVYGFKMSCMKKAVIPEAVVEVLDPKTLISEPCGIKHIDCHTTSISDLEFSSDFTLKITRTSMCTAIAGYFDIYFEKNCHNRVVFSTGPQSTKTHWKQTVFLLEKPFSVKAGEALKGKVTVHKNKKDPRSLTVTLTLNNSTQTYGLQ

ASPC1 = assay: Antitumor activity in human ASPC1 cells xenografted in BALB/c nude mouse assessed as tumor growth inhibition at 100 mg/kg, relative to control; format: functional; design: scale not given: the % may be the effect or the level left
[9] = biological target: T1, Histone-arginine methyltransferase CARM1; assay: Inhibition of PRMT4 (unknown origin)

Structure (SMILES): C[C@H](N)C(=O)Nc1ccc2[nH]cc(-c3cccc(S(C)(=O)=O)c3)c2c1
- Ratio IC50 (Homo sapiens): 197

Structure (SMILES): CNCCNCc1cccc(-c2nc(Nc3cccc(OCCCCCCC(=O)NO)c3)c(C)c(-c3ccnc4[nH]ccc34)n2)c1
- IC50 (DU-145): < 1 µM

Structure (SMILES): CNCC(=O)N1CCOc2c(O)cc(-c3cccc(Cl)c3)cc2C1
- IC50 [1]: 42.2 µM
- IC50 (MCF7): 8.26 µM

Structure (SMILES): CNCCN(C)Cc1ccccc1OCc1cccc(Cl)c1Cl
- IC50 (MV4-11): 4.55 µM

Structure (SMILES): C[C@H](N)C(=O)Nc1ccc2c(c1)c(-c1cccc(S(=O)(=O)N(C)C)c1)cn2C
- IC50 [2]: < 0.002 µM
- Ratio IC50 (Homo sapiens): > 500

Structure (SMILES): CCOC(=O)c1cc(C(=O)NCc2ccccc2CCC(F)(F)F)n(-c2cccc(NC(=O)[C@H](C)N)c2)c1
- logP [3]: 4.48
- IC50 [2]: 0.78 µM

Structure (SMILES): NC(=O)[C@@H](N)CCCNCNCCCSC[C@H]1O[C@H](n2cnc3c(N)ncnc32)[C@H](O)[C@@H]1O
- IC50 [4]: 0.00042 µM

Structure (SMILES): Nc1ncnc2c1ncn2[C@H]1O[C@@H](CN(CCCNc2ccccn2)CC[C@H](N)C(=O)O)[C@H](O)[C@@H]1O
- IC50 [5]: 1.11 µM

Structure (SMILES): NCCN1CCC(Cc2ccccc2)CC1
- IC50 [6]: 0.3 µM

Structure (SMILES): N=C(NCCCN(CCNC(=O)NCc1ccccc1)C[C@H]1O[C@@H](n2cnc3c(N)ncnc32)[C@H](O)[C@@H]1O)Nc1cccc(Br)c1
- IC50 [2]: < 0.001 µM

Structure (SMILES): COC1CCC(CCNC(=O)[C@H](CC[C@H](CNCc2ccccc2)C[C@H]2O[C@@H](n3cnc4c(N)ncnc43)[C@H](O)[C@@H]2O)NC(=O)CC(C)(C)C2=C(C)C(=O)C(C)=C(C)C2=O)CC1 (stereo partly drawn)
- IC50 [7]: 0.043 µM

Structure (SMILES): Nc1ncnc2c1ncn2[C@@H]1O[C@H](CSCC[C@H](N)C(=O)O)[C@@H](O)[C@H]1O [S-ADENOSYLHOMOCYSTEINE]
- IC50 [8]: < 0.005 µM

Structure (SMILES): C[S+](CC[C@H](N)C(=O)[O-])C[C@H]1O[C@@H](n2cnc3c(N)ncnc32)[C@H](O)[C@@H]1O (stereo partly drawn) [ADEMETIONINE]
- IC50 [2]: 0.0028 µM

Structure (SMILES): OCCNCCNCc1ccccc1OCc1ccc(Cl)cc1Cl
- IC50 [2]: 42.4 µM

Structure (SMILES): CNC[C@@H](O)COc1ccc(Cl)c(-c2nc(-c3c(C)noc3C)c(C)c(N3CC4(CCN(C(=O)OC)CC4)C3)n2)c1
- Activity (ASPC1): 52%

Structure (SMILES): C[C@H](N)C(=O)Nc1ccc2[nH]nc(-c3cccc(S(=O)(=O)N(C)C)c3)c2c1
- IC50 [2]: 0.5 µM
- IC50 [9]: 0.06 µM

Structure (SMILES): NCCCN(CCCNc1ccccn1)C[C@@H]1O[C@H](n2cnc3c(N)ncnc32)[C@@H](O)[C@H]1O
- IC50 [5]: 1.14 µM

Structure (SMILES): C[C@H](N)C(=O)NCc1cccc(-n2cc(C(F)(F)F)cc2C(=O)NCc2ccccc2)c1
- logP [3]: 3.8
- IC50 [2]: 7.23 µM
